Source: patent publication US10815274B2, “Immunogenic WT-1 peptides and methods of use thereof” (Memorial Sloan Kettering Cancer Center, priority 2012, dated 2020)
Where a SMILES comes first, the peptide text is derived from it.

Assays:
WT1- autologous APC = assay: Cr51 release assay, cytotoxic CTL response vs unmodified autologous APC; format: cell-based, human; details: 50:1 E:T
[1] = test system: WT1- allo APC with restricting HLA allele; assay: Cr51 release assay, cytotoxic CTL response vs unloaded allogeneic APC sharing restricting HLA allele; format: cell-based, human; details: 50:1 E:T
WT1- leukemia = assay: Cr51 release assay, cytotoxic CTL response vs WT1- leukemia; format: cell-based, human; details: 50:1 E:T
From the text: (§1) Twenty-four primary leukemic cells and 1 leukemic cell line were characterized for their expression of WT1 by intracellular FACS staining using murine anti-human WT1 monoclonal antibodies (Neomarkers, Fremont, Calif.) as previously described (32,38) The WT1+ leukemias included blast cells from 11 primary AMLs, 3 primary ALLs and 1B-cell precursor ALL cell line. Ten WT1-leukemias, were used as controls, and included 3 B-cell precursor ALLs and 7 AMLs.

[2] = test system: WT1+ allo APC with restricting HLA allele loaded with WT1 peptide; assay: Cr51 release assay, cytotoxic CTL response vs peptide loaded allogeneic APC sharing restricting HLA allele (HLA restriction); details: for Cytotoxic CTL response, % vs WT1+ allo APC with restricting HLA allele loaded with WT1 peptide: 50:1 E:T
WT1+ leukemia = assay: Cr51 release assay, cytotoxic CTL response vs WT1+ leukemia expressing restricting HLA allele; format: cell-based, human; details: 50:1 E:T
From the text: as §1
PHA blasts were not available from every patient that provided leukemia blasts for this study.

[3] = test system: WT1 peptide loaded autologous APC; assay: Cr51 release assay, cytotoxic CTL response vs peptide loaded autologous APC; format: cell-based, human; details: 50:1 E:T

| SMILES | Cytotoxic CTL response, % vs WT1- autologous APC (WT1- autologous APC; HLA allele A0201) [%] | Cytotoxic CTL response, % vs WT1- allo APC with restricting HLA allele ([1]; HLA allele A0201) [%] | Cytotoxic CTL response, % vs WT1- leukemia (WT1- leukemia; HLA allele A0201) [%] | Cytotoxic CTL response, % vs WT1+ allo APC with restricting HLA allele loaded with WT1 peptide ([2]; HLA allele A0201) [%] | Cytotoxic CTL response, % vs WT1+ leukemia (WT1+ leukemia; HLA allele A0201) [%] | Cytotoxic CTL response, % vs WT1 peptide loaded autologous APC ([3]; HLA allele A0201) [%] | Cytotoxicity of T-cells restricted by HLA A0201 against loaded targets [2] | further results |
| --- | --- | --- | --- | --- | --- | --- | --- | --- |
| CC[C@H](C)[C@H](NC(=O)[C@H](C)N)C(=O)N[C@@H](CC(C)C)C(=O)N[C@@H](CC(=O)O)C(=O)N[C@@H](Cc1ccccc1)C(=O)N[C@@H](CC(C)C)C(=O)N[C@@H](CC(C)C)C(=O)N[C@@H](CC(C)C)C(=O)N[C@@H](CCC(N)=O)C(=O)O [SEQ ID NO: 147] (H-AILDFLLLQ-OH; N-terminus and C-terminus assumed) | 0 | 3 | 3 | 17 | 19 | 18 |  |  |
| CC(C)C[C@H](NC(=O)[C@H](CS)NC(=O)CNC(=O)[C@@H]1CCCN1)C(=O)N[C@@H](CCC(N)=O)C(=O)N[C@@H](CCC(N)=O)C(=O)N1CCC[C@H]1C(=O)N[C@@H](CCC(=O)O)C(=O)N[C@@H](CCC(N)=O)C(=O)O [SEQ ID NO: 148] (H-PGCLQQPEQ-OH; N-terminus and C-terminus assumed) | 6 | 7 | 5 | 27 | 19 | 54 |  | Cytotoxic CTL response, % vs WT1- autologous APC (WT1- autologous APC; HLA allele B4701): 6%; Cytotoxic CTL response, % vs WT1- allo APC with restricting HLA allele ([1]; HLA allele B4701): 1%; Cytotoxic CTL response, % vs WT1+ allo APC with restricting HLA allele loaded with WT1 peptide ([2]; HLA allele B4701): 25%; Cytotoxic CTL response, % vs WT1 peptide loaded autologous APC ([3]; HLA allele B4701): 54% |
| CC(C)C[C@H](NC(=O)[C@H](C)NC(=O)[C@H](CC(N)=O)NC(=O)[C@H](CC(C)C)NC(=O)[C@H](CC(=O)O)NC(=O)[C@@H](N)CCCNC(=N)N)C(=O)N[C@@H](CC(C)C)C(=O)N1CCC[C@H]1C(=O)N[C@@H](C)C(=O)N[C@H](C(=O)O)C(C)C [SEQ ID NO: 152] (H-RDLNALLPAV-OH; N-terminus and C-terminus assumed) | 2 | 4 | 0 | 31 | 9 | 51 |  | Cytotoxic CTL response, % vs WT1- autologous APC (WT1- autologous APC; HLA allele B5701): 3%; Cytotoxic CTL response, % vs WT1- allo APC with restricting HLA allele ([1]; HLA allele B5701): 1%; Cytotoxic CTL response, % vs WT1+ allo APC with restricting HLA allele loaded with WT1 peptide ([2]; HLA allele B5701): 22%; Cytotoxic CTL response, % vs WT1 peptide loaded autologous APC ([3]; HLA allele B5701): 44% |
| CC(C)C[C@H](N)C(=O)N[C@@H](CC(=O)O)C(=O)N[C@@H](Cc1ccccc1)C(=O)N[C@@H](C)C(=O)N1CCC[C@H]1C(=O)N1CCC[C@H]1C(=O)NCC(=O)N[C@@H](C)C(=O)N[C@@H](CO)C(=O)O [SEQ ID NO: 155] (H-LDFAPPGAS-OH; N-terminus and C-terminus assumed) | 0 | 1 | 0 | 62 | 40 | 73 | able to lyse |  |
| CC(C)C[C@H](N)C(=O)N[C@@H](CC(=O)O)C(=O)N[C@@H](Cc1ccccc1)C(=O)N[C@@H](C)C(=O)N1CCC[C@H]1C(=O)N1CCC[C@H]1C(=O)NCC(=O)N[C@@H](C)C(=O)N[C@@H](CO)C(=O)N[C@@H](C)C(=O)N[C@@H](Cc1ccc(O)cc1)C(=O)O [SEQ ID NO: 156] (H-LDFAPPGASAY-OH; N-terminus and C-terminus assumed) |  |  |  |  |  |  | able to lyse | Cytotoxic CTL response, % vs WT1- autologous APC (WT1- autologous APC; HLA allele DRB10402): 0%; Cytotoxic CTL response, % vs WT1- allo APC with restricting HLA allele ([1]; HLA allele DRB10402): 1%; Cytotoxic CTL response, % vs WT1- leukemia (WT1- leukemia; HLA allele DRB10402): 0%; Cytotoxic CTL response, % vs WT1+ allo APC with restricting HLA allele loaded with WT1 peptide ([2]; HLA allele DRB10402): 71%; Cytotoxicity of class II HLA-restricted T-cells against loaded targets ([2]; targets sharing the alleles DRB1 0402 and DQB1 0302): selectively cytotoxic; Cytotoxic CTL response, % vs WT1+ leukemia (WT1+ leukemia; HLA allele DRB10402): 40%; Cytotoxic CTL response, % vs WT1 peptide loaded autologous APC ([3]; HLA allele DRB10402): 73% |
| C[C@H](NC(=O)[C@@H]1CCCN1)C(=O)N1CCC[C@H]1C(=O)N1CCC[C@H]1C(=O)N1CCC[C@H]1C(=O)N1CCC[C@H]1C(=O)N1CCC[C@H]1C(=O)N1CCC[C@H]1C(=O)N1CCC[C@H]1C(=O)O [SEQ ID NO: 158] (H-PAPPPPPPP-OH; N-terminus and C-terminus assumed) | 2 | 1 | 0 | 18 | 0 | 40 |  |  |
